Measurements from publication PMC10327353 (Breast Cancer Research : BCR, 2023).

Legend:
HER2 = HER2 (Homo sapiens, UniProt P04626); experiment: In vitro HER2 enzymatic assay (Lance Ultra Kinase Assay); assay type: biochemical; design: purchased Thermo Fisher PR4918A; conditions: recombinant HER2, 2 mM ATP; read-out: IC50 against HER2 in the enzymatic assay
Description: Recombinant HER2 was purchased from Thermo Fisher (Cat. # PR4918A). The inhibition potency of compounds against HER2 enzyme was assessed using Lance Ultra Kinase Assay.
In brief, recombinant kinases were pre-incubated in the presence or absence of the compound at room temperature for 30 minutes. The reaction was initiated by the addition of the ATP and substrate peptide. After 60 minutes of incubation, the reaction was stopped by the addition of the detection reagent mix containing EDTA. The fluorescence was measured at 615 nm and 665 nm, respectively, with excitation wavelength at 320 nm. The calculated signal ratio of 665 nm/615 nm is proportional to the kinase activity.

[1] = system: HER2+ metastatic breast cancer; experiment: Phase 1 study: antitumor activity (modified RECIST v1.1); assay type: in vivo, human
Description: (§1) Tumor imaging assessments were conducted every 6 weeks during the first 24 weeks (relative to C1D1) and every 9 weeks thereafter per investigator review according to modified RECIST v1.1 until progressive disease, starting a new anticancer therapy or withdrawal of informed consent (Additional file 1).
as §1, with “six” for “6”, “nine” for “9”, “anti-cancer” for “anticancer”, “consent. Patients who achieved an objective response had confirmatory scans at least four weeks apart.” for “consent (Additional file 1).”
The modified RECIST 1.1 used in this study includes both CNS assessment and extracranial assessment. A maximum of five measurable extracranial lesions, with a maximum of two lesions per organ, were selected in patients with extracranial disease. In addition, a maximum of five measurable intracranial lesions were selected in patients with intracranial disease. […] An overall response will be derived based on extracranial and intracranial response as described in the below table.

P-gp (MDR1) = biological target: T1, P-gp (MDR1) (Homo sapiens, UniProt P08183); experiment: P-gp efflux ratio, bi-directional transport assay; assay type: in vitro ADME
T1 construct: expressed in transfected cells; host or cells: MDCKII-MDR1
Description: Passive permeability (Papp) characterizes the rate across the cell membrane due to passive diffusion. A high permeability enables the rapid establishment of equilibrium among plasma, CSF, and brain compartments. Except for passive permeability, sufficient unbound drug concentration in the brain is governed by efflux transporters, including P-gp (MDR1, ABCB1) and BCRP, at BBB. Efflux ratio (ER) reflects the liability of a compound to be pumped out of the brain by BBB efflux transporters, which is indicated by the distribution disequilibrium between the plasma and the brain compartments.
[…] The adjusted efflux ratio was used to determine if DZD1516/DZ2678 underwent active efflux. Verapamil, a P-glycoprotein (P-gp) inhibitor, was used to identify if any active transport processes were mediated through P-gp. The apical-to-basolateral (A-B) and basolateral-to-apical (B-A) transport of DZD1516/DZ2678 in HBSS (25 mM HEPES, pH 7.4) with 0.1% BSA was measured across MDCKII-MDR1 cell monolayers in the absence and presence of the P-gp inhibitor, verapamil (100 μM). The apical-to-basolateral (A-B) and basolateral-to-apical (B-A) transport of DZD1516/DZ2678 in HBSS (25 mM HEPES, pH 7.4) with 0.1% BSA was also measured across MDCKII cell monolayers in the absence and presence of the P-gp inhibitor, verapamil. Incubations were performed at approximately 37°C for 120 min, with the functionality of the test system being confirmed using 5 μM digoxin as a positive control substrate. […] determined by quantifying substrate concentration in the incubation medium of the donor compartment at the beginning of the incubation period and both donor and receiver compartments at the end of the incubation period. The data was used to calculate the apparent permeability (Papp). All incubations were performed in triplicate, and the integrity of the cell monolayers was confirmed using the marker Lucifer yellow.

T1 sequence (P08183 whole entry): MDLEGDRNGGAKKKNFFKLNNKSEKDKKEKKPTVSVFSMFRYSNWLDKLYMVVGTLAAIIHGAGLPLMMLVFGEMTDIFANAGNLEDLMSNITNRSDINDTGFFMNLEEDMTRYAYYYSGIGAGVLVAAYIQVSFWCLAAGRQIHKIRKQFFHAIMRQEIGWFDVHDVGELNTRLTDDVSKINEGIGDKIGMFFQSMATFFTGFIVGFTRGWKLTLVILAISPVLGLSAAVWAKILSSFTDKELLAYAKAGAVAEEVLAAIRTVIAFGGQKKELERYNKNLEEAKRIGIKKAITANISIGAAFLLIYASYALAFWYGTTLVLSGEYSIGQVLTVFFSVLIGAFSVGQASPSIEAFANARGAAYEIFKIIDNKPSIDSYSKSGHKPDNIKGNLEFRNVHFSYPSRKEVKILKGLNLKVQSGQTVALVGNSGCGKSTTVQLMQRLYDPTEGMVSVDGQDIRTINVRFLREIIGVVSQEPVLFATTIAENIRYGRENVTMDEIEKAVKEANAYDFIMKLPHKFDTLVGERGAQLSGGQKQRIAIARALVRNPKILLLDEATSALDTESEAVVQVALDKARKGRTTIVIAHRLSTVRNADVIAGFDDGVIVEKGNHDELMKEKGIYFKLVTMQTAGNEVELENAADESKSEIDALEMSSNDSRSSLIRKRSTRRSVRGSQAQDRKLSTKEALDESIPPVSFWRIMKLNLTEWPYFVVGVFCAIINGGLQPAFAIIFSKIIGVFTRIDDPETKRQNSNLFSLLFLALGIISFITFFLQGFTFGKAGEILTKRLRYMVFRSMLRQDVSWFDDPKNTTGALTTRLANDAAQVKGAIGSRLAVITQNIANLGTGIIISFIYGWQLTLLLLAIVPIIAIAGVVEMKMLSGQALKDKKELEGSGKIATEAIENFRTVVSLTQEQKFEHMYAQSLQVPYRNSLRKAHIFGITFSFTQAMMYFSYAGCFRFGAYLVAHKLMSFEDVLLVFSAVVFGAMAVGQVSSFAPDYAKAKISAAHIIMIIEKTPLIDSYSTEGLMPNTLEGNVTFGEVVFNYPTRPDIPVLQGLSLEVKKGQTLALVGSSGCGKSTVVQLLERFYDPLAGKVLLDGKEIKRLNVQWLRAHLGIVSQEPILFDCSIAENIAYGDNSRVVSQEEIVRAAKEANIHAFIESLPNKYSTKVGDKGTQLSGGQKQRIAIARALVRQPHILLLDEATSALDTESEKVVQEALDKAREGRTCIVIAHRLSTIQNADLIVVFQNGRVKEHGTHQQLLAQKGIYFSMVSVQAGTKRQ
HER2, sequence (P04626 23-1255): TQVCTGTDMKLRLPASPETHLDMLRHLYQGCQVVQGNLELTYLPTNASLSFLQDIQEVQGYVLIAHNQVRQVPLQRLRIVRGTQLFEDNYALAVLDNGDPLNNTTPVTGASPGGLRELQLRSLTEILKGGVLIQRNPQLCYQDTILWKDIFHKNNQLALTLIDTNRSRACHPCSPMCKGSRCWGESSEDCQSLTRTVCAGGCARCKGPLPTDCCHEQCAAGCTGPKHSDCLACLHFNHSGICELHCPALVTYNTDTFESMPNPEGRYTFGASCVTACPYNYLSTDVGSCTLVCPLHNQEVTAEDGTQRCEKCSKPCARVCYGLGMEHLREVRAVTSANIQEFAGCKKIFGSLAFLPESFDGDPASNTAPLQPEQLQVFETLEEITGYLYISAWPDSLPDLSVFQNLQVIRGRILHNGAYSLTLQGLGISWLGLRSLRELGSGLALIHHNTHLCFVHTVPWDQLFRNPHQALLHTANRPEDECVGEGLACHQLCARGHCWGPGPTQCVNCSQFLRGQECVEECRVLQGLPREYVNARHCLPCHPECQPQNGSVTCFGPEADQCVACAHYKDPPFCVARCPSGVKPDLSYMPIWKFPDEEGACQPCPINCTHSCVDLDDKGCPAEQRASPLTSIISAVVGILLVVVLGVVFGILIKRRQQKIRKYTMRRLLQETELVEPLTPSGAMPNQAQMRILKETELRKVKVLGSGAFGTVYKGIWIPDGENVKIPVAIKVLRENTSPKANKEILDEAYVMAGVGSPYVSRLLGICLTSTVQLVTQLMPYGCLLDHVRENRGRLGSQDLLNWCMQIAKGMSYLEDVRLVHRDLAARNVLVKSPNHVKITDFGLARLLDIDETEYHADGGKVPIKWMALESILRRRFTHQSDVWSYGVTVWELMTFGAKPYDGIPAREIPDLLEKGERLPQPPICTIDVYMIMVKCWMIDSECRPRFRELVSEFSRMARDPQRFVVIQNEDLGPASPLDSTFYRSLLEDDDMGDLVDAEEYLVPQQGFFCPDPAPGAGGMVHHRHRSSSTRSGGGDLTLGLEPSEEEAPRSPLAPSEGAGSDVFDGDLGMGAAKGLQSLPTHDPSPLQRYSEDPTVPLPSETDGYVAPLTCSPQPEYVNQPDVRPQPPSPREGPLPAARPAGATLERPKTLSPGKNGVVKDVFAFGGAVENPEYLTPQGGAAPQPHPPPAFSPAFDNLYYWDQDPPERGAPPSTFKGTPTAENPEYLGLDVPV

In the case of `COc1cc(O[C@H]2CCN(C)CC2(F)F)c2c(Nc3ccc(Oc4ccn5ncnc5c4)c(C)c3)ncnc2c1` [DZD1516], the IC50 (HER2) is reported as 0.56 nM, the disease control rate ([1]; MTD (250 mg), 3/5) is reported as 60% and the “patients who achieved stable disease” value ([1]; all dose levels) is reported as 6 out of 23. The “best antitumor efficacy in intracranial, extracranial and overall lesions” value ([1]; patients, median seven lines of prior systemic therapy) was “stable disease”, the efflux ratio at 120 min, 1 µM (P-gp (MDR1); human, MDCK-MDR1, pH 7.4) was under 2 and the “Efflux ratio P-gp @1 µM” value (P-gp (MDR1); listed as Cpd-5) was 1.6.
